Source: the supplement of paper PMC13380429
Structures can show the parent of a compound that is named as a salt.

What was measured:
Details in all cases: 72 h
HepG2 [1] = experiment: relative viability EC50 (midpoint between 100% and the lowest measured viability); higher = less toxic
Vero E6 [2] = experiment: as above
U2OS [3] = experiment: as above
Caco-2 [4] = experiment: as above
HepG2 [5] = experiment: cell viability relative to DMSO; higher = less toxic
Calu-3 [6] = experiment: as above
Vero E6 [7] = experiment: as above
U2OS [8] = experiment: as above
Caco-2 [9] = experiment: as above
HepG2 [10] = experiment: drug sensitivity score (DSS) for viability; higher = more toxic; extreme values may be limits of the assay
Calu-3 [11] = experiment: as above
Vero E6 [12] = experiment: as above
U2OS [13] = experiment: as above
Caco-2 [14] = experiment: as above
Calu-3 [15] = experiment: relative viability EC50 (midpoint between 100% and the lowest measured viability); higher = less toxic

| Structure (SMILES) | relative viability EC50 (HepG2 [1]) [µM] | relative viability EC50 (Vero E6 [2]) [µM] | relative viability EC50 (U2OS [3]) [µM] | relative viability EC50 (Caco-2 [4]) [µM] | cell viability (HepG2 [5]; 1 nM) [%] | cell viability (HepG2 [5]; 10 nM) [%] | cell viability (HepG2 [5]; 100 nM) [%] | cell viability (HepG2 [5]; 1000 nM) [%] | cell viability (HepG2 [5]; 10000 nM) [%] | cell viability (Calu-3 [6]; 1 nM) [%] | cell viability (Calu-3 [6]; 10 nM) [%] | cell viability (Calu-3 [6]; 100 nM) [%] | cell viability (Calu-3 [6]; 1000 nM) [%] | cell viability (Calu-3 [6]; 10000 nM) [%] | cell viability (Vero E6 [7]; 1 nM) [%] | cell viability (Vero E6 [7]; 10 nM) [%] | cell viability (Vero E6 [7]; 100 nM) [%] | cell viability (Vero E6 [7]; 1000 nM) [%] | cell viability (Vero E6 [7]; 10000 nM) [%] | cell viability (U2OS [8]; 1 nM) [%] | cell viability (U2OS [8]; 10 nM) [%] | cell viability (U2OS [8]; 100 nM) [%] | cell viability (U2OS [8]; 1000 nM) [%] | cell viability (U2OS [8]; 10000 nM) [%] | cell viability (Caco-2 [9]; 1 nM) [%] | cell viability (Caco-2 [9]; 10 nM) [%] | cell viability (Caco-2 [9]; 100 nM) [%] | cell viability (Caco-2 [9]; 1000 nM) [%] | cell viability (Caco-2 [9]; 10000 nM) [%] | drug sensitivity score (HepG2 [10]) | drug sensitivity score (Calu-3 [11]) | drug sensitivity score (Vero E6 [12]) | drug sensitivity score (U2OS [13]) | drug sensitivity score (Caco-2 [14]) | relative viability EC50 (Calu-3 [15]) [µM] |
| --- | --- | --- | --- | --- | --- | --- | --- | --- | --- | --- | --- | --- | --- | --- | --- | --- | --- | --- | --- | --- | --- | --- | --- | --- | --- | --- | --- | --- | --- | --- | --- | --- | --- | --- | --- |
| CN[C@H]1CC[C@@H](c2ccc(Cl)c(Cl)c2)c2ccccc21 [SERTRALINE HYDROCHLORIDE] | > 10 | > 10 | > 10 | > 10 | 102 | 108 | 98.1 | 112 | 79.2 | 102 | 105 | 104 | 103 | 58.3 | 98.5 | 97.4 | 102 | 93.6 | 77.8 | 103 | 99.1 | 93 | 100 | 81.5 | 99.2 | 103 | 95.9 | 102 | 84.4 | 0.4 | 1.9 | 1.6 | 0.5 | 0.2 | – |
| Oc1ccc(Nc2nc(-c3ccc(Cl)cc3)cs2)cc1 [SKI-II] | > 10 | > 10 | – | > 10 | 90.8 | 68.7 | 106 | 81.3 | 98 | 103 | 96.2 | 97.8 | 90.5 | 85.6 | 102 | 104 | 99.2 | 107 | 97.5 | – | – | – | – | – | 100 | 98.1 | 104 | 99.9 | 90 | 0 | 0.5 | 0 | – | 0 | > 10 |
| CC(=O)Nc1ccc(C(=O)O)cc1 [acedoben] | > 10 | – | > 10 | > 10 | 114 | 110 | 107 | 96.8 | 104 | 101 | 99.4 | 96.7 | 100 | 108 | – | – | – | – | – | 97.4 | 104 | 97.3 | 98 | 102 | 88.6 | 100 | 95.6 | 86.4 | 109 | 0 | 0 | – | 0 | 0 | > 10 |
| C=CC[N@@+]12CC[C@@]34c5ccccc5N5/C=C6/[C@H]7C[C@H]8[C@@]9(CC[N@@+]8(CC=C)C/C7=C/CO)c7ccccc7N(/C=C(/[C@@H](C[C@@H]31)/C(=C\CO)C2)[C@H]54)[C@@H]69 [alcuronium] | > 10 | – | > 10 | > 10 | 106 | 107 | 98.2 | 102 | 103 | 97.8 | 103 | 91.2 | 90.8 | 87.8 | – | – | – | – | – | 102 | 99 | 101 | 99.7 | 103 | 94.9 | 99.9 | 99.4 | 102 | 107 | 0 | 1 | – | 0 | 0 | > 10 |
| O=C1C2CC=CCC2C(=O)N1SC(Cl)(Cl)Cl (centres undefined) [captan] | > 10 | – | > 10 | > 10 | 101 | 93.1 | 85.8 | 86.3 | 82.1 | 99.9 | 99.6 | 102 | 106 | 99.4 | – | – | – | – | – | 105 | 100 | 105 | 96.1 | 92.1 | 102 | 102 | 101 | 98.6 | 88.9 | 3.1 | 0 | – | 0 | 0 | > 10 |
| C[C@@H]1CC[C@@]2(OC1)O[C@H]1C[C@H]3[C@@H]4CC=C5C[C@@H](O[C@@H]6O[C@H](CO)[C@@H](O[C@@H]7O[C@@H](C)[C@H](O)[C@@H](O)[C@H]7O)[C@H](O)[C@H]6O[C@@H]6O[C@@H](C)[C@H](O)[C@@H](O)[C@H]6O)CC[C@]5(C)[C@H]4CC[C@]3(C)[C@H]1[C@@H]2C [dioscin] | 1.59 | 1.42 | – | 1.56 | 96.8 | 97.5 | 90.1 | 76.2 | -0.2 | 96.7 | 89.7 | 97.9 | 79.3 | 2.9 | 97 | 103 | 98.4 | 71.1 | 0.9 | – | – | – | – | – | 97.9 | 92.6 | 95.2 | 75.9 | 2.3 | 9.2 | 8.7 | 9.7 | – | 9.1 | 1.68 |
| C/C1=C/C[C@@H](/C(C)=C/c2csc(C)n2)OC(=O)C[C@H](O)C(C)(C)C(=O)[C@H](C)[C@@H](O)[C@@H](C)CCC1 [epothilone-D] | 0.0074 | 0.0363 | 0.0075 | 0.0202 | 91.8 | 50.6 | 22.2 | 15.8 | 22.2 | 110 | 84 | 61.9 | 55.2 | 54.1 | 99.8 | 83.9 | 45.1 | 25.3 | 46.8 | 97.6 | 53.1 | 29.5 | 23.2 | 41.5 | 101 | 83.1 | 53.9 | 46.3 | 56.9 | 31.7 | 14.8 | 21.5 | 29.4 | 17.4 | – |
| C[C@]12CC[C@@H]3c4ccc(O)cc4CC[C@H]3[C@@H]1CC[C@@H]2OC(=O)CCC1CCCC1 [estradiol-cypionate] | > 10 | – | > 10 | > 10 | 103 | 96.5 | 105 | 95.8 | 98.8 | 82 | 90.4 | 103 | 93 | 102 | – | – | – | – | – | 99.6 | 104 | 99.2 | 100 | 96.7 | 99.9 | 106 | 85.4 | 97.2 | 90 | 0 | 0 | – | 0 | 0 | > 10 |
| CC[C@@]1(O)C(=O)OCc2c1cc1n(c2=O)Cc2c-1nc1cc(F)c(C)c3c1c2[C@@H](N)CC3 [exatecan-mesylate] | 0.0038 | 0.158 | 0.127 | 0.0178 | 65.8 | 40.5 | 20.8 | 2.3 | 3.9 | – | – | – | – | – | 110 | 91.8 | 60.6 | 15.9 | 0.4 | 102 | 92 | 56.9 | 17 | 4.1 | 90.7 | 72.7 | 32.7 | 21 | 20.7 | 36.4 | – | 20.5 | 20.9 | 25.8 | – |
| CCCCCN(C)CCC(O)(P(=O)(O)O)P(=O)(O)O [ibandronate] | > 10 | – | – | > 10 | 111 | 98 | 112 | 106 | 117 | 96.4 | 111 | 96 | 106 | 107 | – | – | – | – | – | – | – | – | – | – | 97 | 111 | 106 | 106 | 94.5 | 0 | 0 | – | – | 0 | > 10 |
| COC(F)(F)C(Cl)Cl [methoxyflurane] | > 10 | > 10 | > 10 | > 10 | 103 | 96.3 | 100 | 94 | 109 | – | – | – | – | – | 104 | 102 | 103 | 96.7 | 96.3 | 99.8 | 97.3 | 98.5 | 95.3 | 100 | 96.2 | 98.1 | 96.9 | 99.8 | 94.4 | 0 | – | 0 | 0 | 0 | – |
| O=C(O)c1ccccc1S [o-mercapto-benzoic-acid] | > 10 | > 10 | > 10 | > 10 | 99.7 | 91.5 | 89.9 | 101 | 112 | – | – | – | – | – | 92.2 | 97.9 | 96.2 | 105 | 106 | 97.9 | 94.1 | 95.9 | 94.8 | 109 | 98 | 87.2 | 86.4 | 102 | 99.4 | 0 | – | 0 | 0 | 0 | – |
| CN1C(C)(C)CCCC1(C)C [pempidine] | > 10 | > 10 | – | > 10 | 96 | 103 | 98.1 | 105 | 84.7 | 114 | 105 | 98.3 | 107 | 110 | 97.4 | 100 | 95.1 | 95.7 | 94.4 | – | – | – | – | – | 102 | 89.1 | 95.1 | 99.5 | 109 | 0.1 | 0 | 0 | – | 0 | > 10 |
| CCn1cc(C(=O)O)c(=O)c2cnc(N3CCCC3)nc21 [piromidic-acid] | > 10 | – | > 10 | > 10 | 93 | 104 | 96.9 | 103 | 99.3 | 101 | 74.8 | 95.1 | 87 | 98.6 | – | – | – | – | – | 99.8 | 98 | 100 | 99.1 | 102 | 103 | 90.3 | 97.6 | 97.1 | 93.7 | 0 | 0 | – | 0 | 0 | > 10 |
| CCC(NC(C)C)C(O)c1ccc(O)c2[nH]c(=O)ccc12 (centres undefined) [procaterol] | > 10 | – | > 10 | > 10 | 110 | 93.9 | 103 | 97.4 | 95.4 | 92.1 | 104 | 105 | 110 | 95.9 | – | – | – | – | – | 101 | 105 | 96 | 104 | 101 | 84.2 | 107 | 89.9 | 99.6 | 92.8 | 0 | 0 | – | 0 | 0 | > 10 |
| O=C1NC(=O)[C@@H](c2cn3c4c(cccc24)CCC3)[C@@H]1c1c[nH]c2ccccc12 [tivantinib] | 0.311 | 0.331 | 0.648 | 0.688 | 108 | 96.5 | 99.5 | 39.5 | 41.5 | 98.3 | 94.1 | 98.9 | 72.6 | 59.6 | 97.3 | 99.8 | 92.8 | 36.5 | 28.2 | 102 | 102 | 95.1 | 51.9 | 26.2 | 107 | 94.3 | 103 | 60.2 | 44.7 | 11.1 | 5.3 | 12.7 | 10.1 | 7.7 | – |
